According to patent US9878984B2, “Anti-cancer compounds” (NORTHWESTERN UNIVERSITY, priority 2008, dated 2018):

Legend:
[1] = test system: Chk2; assay: DNA damage response assay (pThr68-Chk2 / total Chk2 western blot); assay type: cell-based, human; details: HeLa cells, [GI99%], 20 hr, normalized to mitoxantrone
Description: DNA Damage Response Assay: 250,000 HeLa cells were plated in 35 mm culture dishes and allowed to attach for 8 hr and were then treated with the [GI99%] of each compound for 20 hr (total media volume was […] with 1% DMSO). After treatment cells were lysed in 150 μL detergent buffer containing 1:100 v/v protease inhibitor cocktail (Sigma—St. Louis, Mo.). Lysates were run on denaturing 12% acrylamide gels and transferred to nitrocellulose membranes. The membranes were blocked in blotto, incubated in anti-pThr68-Chk2 antibody (Cell Signaling—Danvers, Mass.) at 1:500 v/v dilution in blotto overnight 4° C., washed, incubated in HRP conjugated anti-rabbit secondary antibody (Jackson) at 1:5,000 v/v dilution in blotto for 1 hr, and then developed. The membranes were then stripped with a reducing buffer, blocked in blotto, incubated in anti-Chk2 antibody (Biolegend—San Diego, Calif.) at 1:500 v/v dilution in blotto overnight at 4° C., washed, incubated in HRP conjugated anti-mouse secondary antibody (Jackson) at 1:5,000 v/v dilution in blotto for 1 hr, and then developed. Membranes were developed with PicoWest Developing Solution (Pierce) and exposed to film. The intensities of bands were quantified as described in the previous section. The data are expressed as the average ratio of pThr68-Chk2 to total Chk2 as normalized to the mitoxantrone control in each of three independent experiments.
Topoisomerase inhibition by most mechanisms should cause activation of DNA damage response pathways because of the production of single and double strand DNA breaks, as is the case with amonafide. […] Therefore, measuring the DNA damage response at a fixed cytotoxic dose ([GI99%]) will determine the extent that DNA damage contributes to the cytotoxicity of these compounds. […] Activation of Chk2 was determined by measuring the ratio of pThr68-Chk2 to total Chk2 in HeLa cells treated with the [GI99%].

[2] = test system: HeLa cells; assay: Transwell invasion assay; assay type: cell-based, human; details: [GI99%], matrigel, 20 hr
Description: Transwell Invasion Assay: HeLa cells were plated at 250,000 per 35 mm well and allowed to attach for 8 hr. The cells were washed with PBS and then treated for 4 hr with the [GI99%] of each compound (or 1% DMSO—vehicle control) in serum free media to decrease the number of invading cells in the beginning of the experiment due to a preliminary lack of drug exposure. The cells were then trypsinized and counted by trypan blue exclusion with a hemacytometer (Sigma—St. Louis, Mo.). Eight micron pore size control well inserts for 12 well plates (BD Biosciences) were coated with 100 μL 1 mg/mL matrigel (Sigma—St. Louis, Mo.) and allowed to solidify at room temperature for 1 hr. The excess matrigel was aspirated and the inserts were gently washed with PBS. The cells were seeded at a density of 300,000 per insert well in a volume of 500 μL serum free media containing a derivative or vehicle. The inserts were then placed in wells containing 700 μL serum free media with the respective compound. After 20 hr the cells on the top of the membranes were gently removed with a cotton swab, the membranes then were fixed in methanol for 1 min, stained in Gills No. 3 Hematoxylin (Sigma—St. Louis, Mo.) for 5 min, rinsed in tap water, and allowed to dry overnight. The membranes were excised, mounted on slides, and the cells were counted under the 40× objective of a bright field microscope. The data are expressed as the average total number of invading cells counted in 20 fields of each membrane, as standardized to the vehicle control, from six experiments.
Effect of derivatives on the malignant phenotype—invasion assay: If A1-A9 have differential targets, DNA binding specificity, or downstream effects they may differentially alter the malignant behavior of cells. Also, anti-cancer compounds can be efficacious against tumors in other ways besides inhibiting growth and inducing death of cancer cells; they can also alter the behavior of malignant cells. Therefore, the ability of A1-A9 and amonafide to alter the invasive behavior of cancer cells in a transwell (also known as Boyden chamber) invasion assay was evaluated, which determines the ability of cells to migrate through a proteinacious gel. This behavior is considered to be representative of cancer cell invasion through the basement membrane of the primary tumor environment. In this assay, treated cells are seeded on to the top of the matrigel-coated porous membrane, allowed to invade through the proteinacious gel onto the underside of the membrane, and then counted.

[3] = test system: HeLa, PC-3M, and MDA-MB-231; assay: MTS growth inhibition assay, human cancer cell lines; assay type: cell-based; details: 72 hr, MTS proliferation assay
Description: Cell Culture: HeLa (cervical carcinoma), WI-38 (normal human […] fibroblasts), and MDA-MB-231 (breast carcinoma), cells were cultured in DMEM (Invitrogen—Carlsbad, Calif.) and PC-3M (metastatic prostate carcinoma) cells were cultured in RPMI-1640. Peripheral blood mononuclear cells (PBMCs) were voluntarily collected from a healthy laboratory worker by standard sterile phlebotomy techniques and isolated using Vacutainer CPT collection tubes (BD Biosciences—Bedford, Mass.). PBMCs were isolated freshly for each experiment. All DMEM and RPMI-1640 media was supplemented with 10% FBS (Atlanta Biologicals—Lawrenceville, Ga.) and 100 U/mL penicillin and streptomycin (Invitrogen). […]
Growth Inhibition Assays: HeLa, MDA-MB-231, PC-3M, WI-38, and HUVEC cells were plated at 5,000 cells per well in 96 well plates and allowed to attach for 20 hr (8 hr for HeLa). […] Cell proliferation was measured at t=0 (time at start of treatment) and t=72 hr using MTS AQueous non-radioactive proliferation assay (Promega—Madison, Wis.). […] The absorbance at 490 nm in each well was read with a Spectramax 250 plate reader (Molecular Devices—Sunnyvale, Calif.). […] Data were fit to one site dose response curves in order to obtain specific growth inhibitory concentrations and the relative standard errors of the mean for these concentrations were calculated by the XLfit4 software. […]

[4] = test system: pBR322 plasmid DNA; assay: DNA intercalation assay (topoisomerase I based plasmid DNA unwinding); assay type: biochemical; details: 10, 31.6, and 100 μM, human topoisomerase I
Description: DNA Intercalation Assay: A DNA unwinding assay was performed as previously described with minor modifications. Four Units of recombinant wild type human topoisomerase I (Topogen—Port Orange, Fla.) were incubated with reaction buffer (included with enzyme), ˜0.5 μg of pBR322 plasmid DNA, which is a mixture of form I and form II plasmid DNA, and water added to a final volume of 19 μL. The reactions were incubated at 37° C. for 30 min and then 1 μL of each compound was added to give a final concentration of 10, 31.6, and 100 μM (final solvent concentration of 1% DMSO) and the reaction mixture was incubated at 37° C. for another 30 min. The reaction was stopped by the addition of 5 μL gel loading dye. The samples were immediately loaded onto a 1% agarose gel and electrophoresis was performed at 50 V for 3 h at room temperature. Pictures of the gels were obtained using a Kodak Image Station 440 CF (Kodak—Rochester, N.Y.) equipped with a UV source.
This activity depends on the ability of these compounds to intercalate DNA, which is the proposed mechanism of cytotoxic action of amonafide and its analogs. Therefore, the intercalation of plasmid DNA by A1-A9 was compared with the intercalation by amonafide to determine if they behave similarly. A topoisomerase I (topo I) based plasmid DNA unwinding assay was used to determine the intercalation of each compound [1]. […]

[5] = test system: Normal cells (PBMC, HUVEC, and WI-38); assay: Cancer cell selective growth inhibition (cancer cells vs normal cells); assay type: cell-based, human; details: 72 hr MTS
Description: […] Peripheral blood mononuclear cells (PBMCs) were voluntarily collected from a healthy laboratory worker by standard sterile phlebotomy techniques and isolated using Vacutainer CPT collection tubes (BD Biosciences—Bedford, Mass.). PBMCs were isolated freshly for each experiment. All DMEM and RPMI-1640 media was supplemented with 10% FBS (Atlanta Biologicals—Lawrenceville, Ga.) and 100 U/mL penicillin and streptomycin (Invitrogen). HUVEC (Human umbilical vein endothelial cells) were cultured in EGM-2 media with supplements provided in the manufacturers BulletKit (Lonza—Walersville, Md.). All cells were maintained at 37° C. and in a 5% CO2 atmosphere.
Growth Inhibition Assays: HeLa, MDA-MB-231, PC-3M, WI-38, and HUVEC cells were plated at 5,000 cells per well in 96 well plates and allowed to attach for 20 hr (8 hr for HeLa). The media was removed and 198 μL of fresh media was added to each well. […] PBMCs were isolated and plated at 100,000 per well in 96 well plates with a volume of 197 μL. They were allowed to settle in the media for 20 hr, at which point 1 μL of 1 mg/mL phytohemagglutinin (Sigma—St. Loius Mo.) in PBS was added to stimulate proliferation (final concentration of 5 μg/mL). […] Cell proliferation was measured at t=0 (time at start of treatment) and t=72 hr using MTS AQueous non-radioactive proliferation assay (Promega—Madison, Wis.). This assay utilizes the metabolic conversion of yellow tetrazolium to a purple formazan by live cells and the color change is proportional to the number of cells. […] The absorbance at 490 nm in each well was read with a Spectramax 250 plate reader (Molecular Devices—Sunnyvale, Calif.). […] Data were fit to one site dose response curves in order to obtain specific growth inhibitory concentrations and the relative standard errors of the mean for these concentrations were calculated by the XLfit4 software. Statistical significance (p value) for the selectivity and all subsequent assays was determined with the two tailed homoscedastic Student's t-test. […]

| Compound | DNA damage response (ratio of pThr68-Chk2 to total Chk2) [1] | invasive behavior (% invading cells vs vehicle) [2] | growth inhibition potency [3] | DNA intercalation [4] | cancer cell selective growth inhibition (selectivity) [5] |
| --- | --- | --- | --- | --- | --- |
| CN(C)CCN1C(=O)c2cccc3cccc(c23)C1=O [A9, 2-[2-(dimethylamino)ethyl]-1H-benz[de]isoquinoline-1,3(2H)-dione] | evoked the strongest DNA damage response | decreases invasive behavior | still remains fairly potent | – | – |
| CCCCCCNc1ccc2c3c(cccc13)C(=O)N(CCN(C)C)C2=O [A5, 6-hexylamino-2-[2-(dimethylamino)ethyl]-1H-benz[de]isoquinoline-1,3(2H)-dione] | – | – | – | intercalates much less than the other compounds | doing so significantly (p<0.05) |
